Measured values: patent US7884076B2, “Multipeptide regimen for the treatment of autistic spectrum, behavioral, emotional and visceral inflammation/autoimmune disorders” (The Trustees of Columbia University In the City of New York, priority 2003, dated 2011)
“Also recorded” adds a separate entry of the source. No end group written: not given here.

Key:
[1] = tested on: c-fos protein expression in brain regions; experiment: i.c.v. secretin, immunocytochemical detection of Fos in rat brain; assay type: in vivo, Sprague-Dawley rats; conditions: i.c.v. lateral ventricle, secretin vs PBS, perfused 3 hours after injection, region named in the value
Source text: The inventors obtained data in eight adult male Sprague-Dawley rats weighing 250-450 g. The rats were obtained from Hilltop Lab Animals, Inc. (Scottdale, Pa.). Under ketamine-xylazine anesthesia, using sterile techniques, a stainless steel guide cannula was stereotaxically inserted into the lateral ventricle of each rat. Each cannula was affixed in place with dental cement secured to the skull. To prevent clogging, a removable 27 gauge wire was inserted into the guide cannula. The placement of the cannula with reference to bregma was 1.4-mm lateral, 0.5-mm caudal, and a depth of 2.5 mm from the surface of the skull. The rats were allowed to recover for 4-5 days before the injections. During this time, both experimental and control rats were administered 0.01 ml/kg buprinorphine hydrochloride every 6 h to reduce pain. Injections were made in the lateral ventricle 5 mm from the surface of the skull, via a premeasured cannula attached by polyethylene tubing (PE20) to a 25 ILL Hamilton syringe containing either phosphate buffered saline (PBS) at pH 7.4 (n=4) or 10 ILg (n=1, pilot study) or 30 ILg (n=3) of secretin (Sigma, St. Louis, Mo.) dissolved in 5-10 ILL PBS. Secretin injections were performed between 11:00 A.M. and 1:00 P.M.
Three hours after the i.c.v. injection, rats were administered sodium pentobarbital and perfused transcardially with heparinized, physiological saline followed by a 4% solution of paraformaldehyde in sodium phosphate buffer, pH 7.4. Whole brains were removed and blocked. Identical procedures were followed in control (n=4) and experimental animals (n=4). Tissue blocks were postfixed for 2-3 h in individual glass vials containing 4% paraformaldehyde in 0.1 M phosphate buffer (PBS, pH 7.4) and cryoprotected overnight at 4° C. in a solution of 10% sucrose in 0.1 M PBS. Frozen sections were cut on a sliding microtome at 30 JLm in the transverse plane and every fourth section was processed immunocytochemically for c-fos protein. Tissues from control and experimental animals were processed simultaneously in the same solutions in order to control for potential variability in immunocytochemistry. All incubations were carried out in separate test wells on a Thomas rotator table. Tissues were collected in 0.1 M PBS (pH 7.4) in spot test wells and washed in Tris-buffered saline (TBS) between each step. Nonspecific binding sites were blocked by preincubating for 30 min in bovine serum albumin (BSA), diluted 1:30 in TBS. Thereafter, sections were incubated overnight in primary whole rabbit antiserum raised against Fos protein diluted 1:10,000 (Oncogene, Cambridge, Mass.). The antisera were diluted in TBS containing 0.1% BSA, to which 0.25% Triton X-100 was added to facilitate antibody penetration. […]

[2] = tested on: IL10-/- colitis, colon inflammation; experiment: IL-10-/- mouse colitis (genetic IBD), hematoxylin/eosin gut histology; assay type: in vivo, C57B6 IL-10-/- mice; conditions: I.P. infusion by Alzet pump, vs saline
Source text: An acquired IBD model was created by inducing Colitis in male Sprague-Dawley rats (n=10) with trinitrobenzene sulfonic acid (TNBS) enema. A genetic IBD model was also created using IL-10 mutant mice. IBD criteria was confirmed in both groups by analyzing numbers of lymphocytes and epithelial destruction, and concomitant cerebral metabolic activity patterns comparing regional induction of c-fos gene expression. Control rats (n=11) and control mice (n=5) were also maintained.
Both the acquired IBD (rat) and genetic IBD (mouse) groups were treated with a combined peptide therapy consisting of co-administration of secretin and oxytocin. The acquired IBD subjects were administered a combination of secretin and oxytocin (40 μg/100 μl i.v.×7-20 days two weeks after disease induction). The genetic IBD subjects were administered a combination of secretin and oxytocin (40 μg/100 μl i.v.×7-20 days at age 18 weeks).
Data were obtained in 21 adult male Sprague-Dawley rats weighing 250-450 g and in 14 C57B6 IL-10−/− mice. Rats were obtained from Hilltop Lab Animals, Inc. (Scottdale, Pa.) and housed at the New York State Psychiatric Institute Housing Facility. Mice were obtained from Jackson Laboratory (Bar Harbor, Me.) and housed at the Eye Institute Annex of Columbia University.
Sprague-Dawley rats (n=10) were anesthetized with ketamine and xylazine and administered a solution of trinitrobenzene sulfonic acid (TNBS). 0.5 ml of TNBS solution (100 μl TNBS 5% solution; 150 μl PBS; 250 μl 100% ethanol) […] was administered intrarectally (Dohi T, et al., '00). Control rats (n=11) were injected with phosphate buffered saline (PBS) solution alone. On days 0, 3 and 7, the TNBS enema was administered via a glass microsyringe equipped with a gastric intubation needle. The animals were treated at the following time intervals: […] after the TNBS treatment in the Sprague-Dawley rats and at 18 weeks of age in the IL-10−/− mice.
Animals were anesthetized with xylazine (7-10 mg/kg I.P.) and ketamine (60 mg/kg I.P.) prior to implantation of an Alzet pump (model #2002). […]

[3] = tested on: c-fos protein expression in brain regions; experiment: i.c.v. secretin, immunocytochemical detection of Fos in rat brain; assay type: in vivo, Sprague-Dawley rats; conditions: secretin infusion into the fourth ventricle (Example 4)

“secretin (HSDGTFTSELSRLRDSARLQRLLQGLV; not fully specified; ends and bridges not checked; UniProt P63298 33-59, looked up) [twenty-seven amino acid peptide and an enterogastrone; commercially available as SecreFlo]” was tested, and the “Fos immunoreactivity (c-fos expression) attenuated in brain regions” value [1] was “attenuated Fos labeling; also recorded: attenuated c-fos expression of the parietal cortex”, the “Fos immunoreactivity (c-fos expression) induced in brain regions” value [1] was “c-fos induction in ependymal and subependymal nuclei lining the third ventricle; also recorded: most heavily concentrated along the medial bank of the prefrontal cortex, the orbitofrontal cortex, the anterior olfactory nucleus, and the piriform cortex; also recorded: Fos immunoreactivity in behavioral, endocrine, and autonomic areas; also recorded: activated the NTS and its projection fields in the reticular formation, diffuse projection systems and the mesolimbic network; also recorded: area postrema was also activated; also recorded: induced c-fos expression in the locus ceruleus (LC); also recorded: induced c-fos expression of ependymal (arrows) and subependymal cells lining the third ventricle (III); also recorded: induced c-fos expression of the piriform cortex” and the “Fos immunoreactivity (c-fos expression) attenuated in brain regions” value ([1]; listed as Secretin) was “attenuated Fos immunoreactivity in the dorsal periaqueductal gray, the intralamanar thalamus, the medial parvicellular hypothalamus, which synthesizes corticotrophin releasing hormone, the motor cortex, and the somatosensory and association areas of the parietal cortex”. For the same substance, the “Fos immunoreactivity (c-fos expression) induced in brain regions” value ([1]; listed as Secretin) was “altered numbers of Fos immunoreactive nuclei, mainly in visceral and limbic areas of the brain; also recorded: induced c-fos protein expression in the dorsal vagal complex, including the general afferent division of NTS and the dorsal motor nucleus; also recorded: Fos IR was concentrated throughout the area postrema and its subpostremal region of transition with the NTS and the commissural, medial parvicellular and periventricular subnuclei; also recorded: activated c-fos expression in cells in the intermediate reticular region of the lateral tegmental field; also recorded: induced c-fos expression in the locus ceruleus (FIG. 3), ventral periaqueductal gray, and the paraventricular thalamic nucleus; also recorded: the predominant labeling mapped to the paraventricular hypothalamic nucleus, mainly its periventricular region and magnocellular subdivision; also recorded: induced c-fos in the medial and central amygdala and the lateral septal complex”, the “colon inflammation / inflammatory infiltrates, hematoxylin and eosin histology” value [2] was “partial resolution of colon inflammation” and the “colon inflammation / inflammatory infiltrates, hematoxylin and eosin histology” value ([2]; listed as S) was “partial resolution of inflammation”. The “colon inflammation / inflammatory infiltrates, hematoxylin and eosin histology” value ([2]; listed as Secretin) was “dramatic increase in inflammatory infiltrate” and the brain regions activated [3] was “activated comparable brain regions; viscerothalamic and HPA stress axes, amygdala, and ependyma”.
